In US20230278972A1, “SUBSTITUTED HALOALKYL SULFONANILIDE HERBICIDES” (FMC Corporation, priority 2020, published 2023):

What was measured:
Format in all cases: in vivo
[1] = test system: Ryegrass, Italian (Italian ryegrass, Lolium multiflorum); test: Test A1 postemergence, Ryegrass, Italian; conditions: Postemergence
How it was run: (§1)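 Seeds were first planted into a blend of loam soil and sand and given a preemergence directed soil spray. In parallel, pots of the same soil were sown for postemergence application once plants reached 2 to 10 cm and the one- to two-leaf stage. Both used surfactant-containing non-phytotoxic solvent formulations.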

[2] = test system: Pigweed, Palmer (palmer amaranth, palmer pigweed, Amaranthus palmeri); test: Test A1 postemergence, Pigweed, Palmer; conditions: Postemergence
How it was run: (§2)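 Plants grown in pots of loam/sand mix; preemergence = soil-directed spray on seeded pots, postemergence = spray at 1–2 leaves, height 2–10 cm; test chemicals formulated in non-phytotoxic solvent with surfactant.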

[3] = test system: wheat (Triticum aestivum); test: Test A1 preemergence, wheat
How it was run: as §2

[4] = test system: goosegrass (Eleusine indica); test: Test A1 postemergence, goosegrass; conditions: Postemergence
How it was run: as §1

[5] = test system: horseweed (Erigeron canadensis); test: Test A1 postemergence, horseweed; conditions: Postemergence
How it was run: as §1

[6] = test system: blackgrass (Alopecurus myosuroides); test: Test A1 postemergence, blackgrass; conditions: Postemergence, 0 to 100 scale (0 no effect, 100 complete control)
How it was run: as §1

[7] = test system: goosegrass (Eleusine indica); test: Test A1 preemergence, goosegrass
How it was run: as §2

[8] = test system: rice (Oryza sativa); test: Test B1 flooded paddy test, rice; conditions: 250 g ai/ha, Flood, applied to paddy water, 2-leaf stage, visually evaluated after 10 to 14 days
Source text: A dash (-) response means no test result.

[9] = test system: Foxtail, Giant (giant foxtail, Setaria faberi); test: Test A1 postemergence, Foxtail, Giant; conditions: Postemergence
How it was run: as §1

[10] = test system: blackgrass (Alopecurus myosuroides); test: Test A1 preemergence, blackgrass
How it was run: as §2

[11] = 31 g ai/ha, 0 to 100 scale (0 no effect, 100 complete control), 10 days
[12] = 31 g ai/ha, 0 to 100 scale (0 no effect, 100 complete control)
[13] = 125 g ai/ha, 0 to 100 scale, 0 no effect, 100 complete control

| SMILES | Plant response rating, Ryegrass, Italian [1, 11] | Plant response rating, Ryegrass, Italian ([1]; 125 g ai/ha, 0 to 100 scale) | Plant response rating, Pigweed, Palmer [2, 11] | Plant response rating, Pigweed, Palmer ([2]; 125 g ai/ha, 0 to 100 scale) | Plant response rating, Wheat [3, 12] | Plant response rating, Wheat [3, 13] | Plant response rating, Goosegrass [4, 11] | Plant response rating, Goosegrass ([4]; 125 g ai/ha, 0 to 100 scale) | Plant response rating, Horseweed [5, 11] | Plant response rating, Horseweed ([5]; 125 g ai/ha, 0 to 100 scale) | Plant response rating, Blackgrass ([6]; 31 g ai/ha, 10 days) | Plant response rating, Blackgrass ([6]; 125 g ai/ha) | Plant response rating, Goosegrass [7, 12] | Plant response rating, Goosegrass [7, 13] | Plant response rating, Rice (0 to 100 scale, 0 is no effect, 100 is complete control) [8] | Plant response rating, Foxtail, Giant [9, 11] | Plant response rating, Foxtail, Giant ([9]; 125 g ai/ha, 0 to 100 scale) | Plant response rating, Blackgrass [10, 12] | Plant response rating, Blackgrass [10, 13] |
| --- | --- | --- | --- | --- | --- | --- | --- | --- | --- | --- | --- | --- | --- | --- | --- | --- | --- | --- | --- |
| Cc1cc(C)c(N(COC(=O)C(C)(C)C)S(=O)(=O)C(F)(F)F)cc1C(=O)N1CCC(F)(F)CC1 [Compound 350] | 30 | 30 | 30 | 40 | 0 | 10 | 10 | 80 | 90 | 100 | 0 | 0 | 30 | 90 | 35 | 10 | 30 | 0 | 0 |
| Cc1cc(C(F)(F)F)c(C2=NOC3CCCC23)cc1NS(=O)(=O)C(F)(F)F (stereo not drawn) [Compound 306] | 0 | 10 | 0 | 40 | 0 | 0 | 0 | 80 | 0 | 40 | 0 | 0 | 50 | 100 | 0 | 0 | 30 | 0 | 0 |
| Cc1cc(C)c(N(COC(=O)OC(C)C)S(=O)(=O)C(F)(F)F)cc1C1=NOC2CCCC12 (stereo not drawn) [Compound 314] | 10 | 70 | 10 | 60 | 0 | 50 | 60 | 80 | 0 | 50 | 0 | 10 | 80 | 90 | 25 | 10 | 30 | 0 | 20 |
| CCOC1CC(c2cc(NS(=O)(=O)C(F)(F)F)c(C)cc2C)=NO1 (stereo not drawn) [Compound 318] | 10 | 70 | 30 | 50 | 0 | 50 | 30 | 30 | 20 | 50 | 0 | 50 | 80 | 100 | 0 | 0 | 80 | 30 | 70 |
| Cc1cc(C2CC2)c(C2=NOC3CCCC23)cc1N(COC(=O)C(C)(C)C)S(=O)(=O)C(F)(F)F (stereo not drawn) [Compound 355] | 30 | 40 | 0 | 30 | 10 | 10 | 0 | 70 | 70 | 70 | 0 | 0 | 20 | 90 | 10 | 10 | 60 | 0 | 0 |
| CCOC(=O)N(c1cc(C(=O)N2CCOCC2)c(C)c(C)c1C)S(=O)(=O)C(F)(F)F [Compound 325] | 0 | 60 | 30 | 90 | 20 | 60 | 0 | 90 | 90 | 90 | 0 | 90 | 100 | 100 | 15 | 30 | 90 | 0 | 40 |
| Cc1c(C(=O)N2C[C@@H](C)O[C@@H](C)C2)cc(N(COC(=O)C(C)(C)C)S(=O)(=O)C(F)(F)F)c(C)c1C [Compound 331] | 10 | 50 | 0 | 20 | 0 | 0 | 0 | 50 | 70 | 80 | 0 | 50 | 0 | 90 | 0 | 20 | 80 | 0 | 0 |
| CCCCOC1CC(c2cc(NS(=O)(=O)C(F)(F)F)c(C)cc2C)=NO1 (stereo not drawn) [Compound 323] | 0 | 20 | 20 | 60 | 0 | 50 | 0 | 50 | 0 | 50 | 0 | 50 | 50 | 90 | 0 | 10 | 50 | 0 | 30 |
| COc1cc(C)c(NS(=O)(=O)C(F)(F)F)cc1C1=NOC2CCCC12 (stereo not drawn) [Compound 312] | 0 | 20 | 0 | 0 | 0 | 0 | 0 | 0 | 0 | 20 | 0 | 0 | 0 | 50 | 0 | 0 | 10 | 0 | 0 |
| Cc1cc(C)c(N(COC(=O)C(C)(C)C)S(=O)(=O)C(F)(F)F)cc1C1=NOC2OCCC12 (stereo not drawn) [Compound 352] | 0 | 90 | 20 | 60 | 10 | 20 | 80 | 90 | 80 | 100 | 0 | 20 | 90 | 100 | 35 | 20 | 70 | 20 | 40 |
| Cc1cc(Br)c(C2=NOC3CCCC23)cc1NS(=O)(=O)C(F)(F)F (stereo not drawn) [Compound 302] | 0 | 0 | 10 | 40 | 0 | 20 | 0 | 10 | 10 | 40 | 0 | 0 | 0 | 90 | 0 | 0 | 0 | 0 | 0 |
| COC(=O)OCN(c1cc(C2=NOC3CCCC23)c(C)cc1C)S(=O)(=O)C(F)(F)F (stereo not drawn) [Compound 315] | 10 | 70 | 30 | 50 | 20 | 70 | 80 | 80 | 20 | 60 | 0 | 0 | 90 | 100 | 35 | 0 | 20 | 20 | 60 |
